Data: patent US20250282827A1, “LIPIDATED POLYMYXIN ANALOGUES” (priority 2021, published 2025)
Converted amounts (≈) assume the structure as drawn. Like-named read-outs stand apart in the source and are kept apart here. Positions of bridges follow the written chain, without caps; N, C: chain ends. Non-standard residues stand in square brackets, D forms with d. Residues, ends and D or L forms follow the SMILES beside them. *: point of attachment. Ethyl(2-OBz) = O=C(OCC*)c1ccccc1; Dab = NCC[C@H](N)C(=O)O; X3 = CCCC(C)C(=O)OCC*

What was measured:
[1] = test system: E. coli ATCC 25922; assay type: cell-based, Escherichia coli; conditions: median of triplicate
Description: (§1) All 81 compounds prepared in Examples 2 and 3 underwent screening against a panel of Gram-negative bacterium to assess their ability to inhibit bacterial growth. […] The median value is presented.

[2] = test system: A. baumannii ATCC 19606; assay type: cell-based, Acinetobacter baumannii; conditions: median of triplicate
Description: as §1

[3] = test system: P. aeruginosa ATCC 27853; assay type: cell-based, Pseudomonas aeruginosa; conditions: median of triplicate
Description: as §1

[4] = test system: K. pneumoniae ATCC 33495; assay type: cell-based, Klebsiella pneumoniae; conditions: median of triplicate
Description: as §1

[5] = test system: K. pneumoniae ATCC 700603; assay type: cell-based, Klebsiella pneumoniae; conditions: median of triplicate
Description: as §1

[6] = test system: K. pneumoniae ATCC MS6671; assay type: cell-based, Klebsiella pneumoniae; conditions: median of triplicate
Description: as §1

[7] = test system: E. coli ATCC MS8345; assay type: cell-based, Escherichia coli; conditions: colistin-resistant strain; median of triplicate
Description: as §1
Expansion of the polymyxin macrocycle by substituting […]) offered little advantage in antimicrobial activity but was generally well tolerated although for A. baumanni and P. aeruginosa this was detrimental.

[8] = test system: kidney organoids derived from human induced pluripotent stem cells; assay: Nephrotoxicity on kidney organoids, renal tubule deterioration by bright field imaging; assay type: cell-based; conditions: scored after 48 h; note: key: 1 = unaffected; 2 = mild deterioration; 3 = severe deterioration; 4 = complete deterioration
Method: Selected polymyxin analogues were evaluated for cytotoxicity in physiologically relevant human kidney tissue, using kidney organoids derived from human induced pluripotent stem cells (Soo et al. 2018). Monolipidated analogues 29, 31, 33, containing a propyl, decyl or phenyl lipid, dilapidated compounds, 35, 38, 39, containing a propyl, tert-butyl or phenyl, lipid, respectively and the N-capped, di-lipidated (phenyl) 49 were selected.
The control compound polymyxin B and the seven ClipPA analogues were tested by adding a range of concentrations (based on Gallado-Godoy et al. 2016) to the organoids at day 12 of the protocol, shown previously to correspond to optimal maturity of the organoid tissues.
Toxicity was scored after 48 h for signs of renal tubule deterioration visible by bright field imaging (not shown).

[9] = test system: Vero cell line; assay: Cellular toxicity against Vero cell line; assay type: cell-based; conditions: Vero cell line; ± standard error
Method: (§2) FIG. 6 is a graph showing cell survival as a function of the indicated compound concentration. Data are representative of triplicate experiments.
(§3) To evaluate if the ClipPA modifications introduced any new toxicity, inhibitory concentrations against Vero and HaCaT cell lines were determined. […] The standard error for each measurement is shown.

[10] = test system: HaCaT cell line; assay: Cellular toxicity against HaCaT cell line; assay type: cell-based; conditions: HaCaT cell line; ± standard error
Method: as §2, §3

[11] = test system: colistin-resistant E. coli; assay type: cell-based, Escherichia coli
Description: (§4) Given the promising antimicrobial activity and low toxicity associated with compounds 29, 35 and to a lesser extent 38, these compounds were progressed to a further round of phenotypic antimicrobial susceptibility testing using a panel of clinically relevant multidrug resistant Gram-negative pathogens. This panel included isolates phenotypically characterised as carbapenem-resistant Enterobacteriacea (CRE), extended spectrum β-lactamase (ESBL) producing Enterobacteriacea, colistin-resistant E. coli, carbapenem-resistant Acinetobacter baumannii (CRAB) or carbapenem-resistant Pseudomonas aeruginosa (CRPA). These isolates were chosen because each was resistant to multiple different families of clinically used antibiotics making treatment options limited and importantly, each of these pathogen types are recognised as “Priority 1: CRITICAL” on the World Health Organization (WHO) priority pathogen list for R&D of new antibiotics. Antimicrobial activity against any of these pathogens would therefore be of clinical importance. […] However, we note that many of the compounds tested in Example 4 did show good activity against colistin-resistant E. coli.

[12] = test system: carbapenem-resistant Acinetobacter baumannii (CRAB); assay type: cell-based; conditions: A. baumannii, CRAB, OXA-23
Description: as §4

[13] = test system: carbapenem-resistant Enterobacteriacea (CRE); assay type: cell-based
Description: as §4

[14] = test system: carbapenem-resistant Pseudomonas aeruginosa (CRPA); assay type: cell-based
Description: as §4

[15] = test system: extended spectrum β-lactamase (ESBL) producing Enterobacteriacea; assay type: cell-based
Description: as §4

Row | Compound | MIC E. coli ATCC 25922 [1] [µg/mL] | MIC A. baumannii ATCC 19606 [2] [µg/mL] | MIC P. aeruginosa ATCC 27853 [3] [µg/mL] | MIC K. pneumoniae ATCC 33495 [4] [µg/mL] | MIC K. pneumoniae ATCC 700603 [5] [µg/mL] | MIC K. pneumoniae ATCC MS6671 [6] [µg/mL] | MIC E. coli ATCC MS8345 [7] [µg/mL] | Score (nephrotoxicity on kidney organoids) ([8]; 100 μM) | Score (nephrotoxicity on kidney organoids) ([8]; 300 μM) | Score (nephrotoxicity on kidney organoids) ([8]; 1 mM) | IC50 Vero [9] [µg/mL] | IC50 HaCaT [10] [µg/mL] | other results
1 | CC(=O)N[C@@H](CSCCOC(=O)c1ccccc1)C(=O)N[C@@H](CCN)C(=O)N[C@H](C(=O)N[C@@H](CCN)C(=O)N[C@H]1CCNC(=O)[C@H]([C@@H](C)O)NC(=O)[C@H](CCN)NC(=O)[C@H](CCN)NC(=O)[C@H](CSCCOC(=O)c2ccccc2)NC(=O)[C@@H](Cc2ccccc2)NC(=O)[C@H](CCN)NC1=O)[C@@H](C)O [Compound 49] (Ac-C(Ethyl(2-OBz))[Dab]T[Dab][Dab][Dab][dF]C(Ethyl(2-OBz))[Dab][Dab]T; lactam 5-C) | 0.5 (≈ 0.335 µM) | 1 to 2 | 1 (≈ 0.669 µM) | 0.5 (≈ 0.335 µM) | 0.5 (≈ 0.335 µM) | >32 | 16 (≈ 10.7 µM) | 3 | 3 | 4 | – | – | –
2 | CCCC(C)C(=O)OCCSC[C@@H](N)C(=O)N[C@H](C(=O)N[C@@H](CCN)C(=O)N[C@H]1CCNC(=O)[C@H]([C@@H](C)O)NC(=O)[C@H](CCN)NC(=O)[C@H](CCN)NC(=O)[C@H](CC(C)C)NC(=O)[C@@H](Cc2ccccc2)NC(=O)[C@H](CCN)NC1=O)[C@@H](C)O (stereo partly drawn) [Compound 94] (H-[dC](X3)T[Dab][Dab][Dab][dF]L[Dab][Dab]T; lactam 4-C) | 1 (≈ 0.827 µM) | 4 (≈ 3.31 µM) | 2 (≈ 1.65 µM) | 1 (≈ 0.827 µM) | 2 (≈ 1.65 µM) | >32 | 16 (≈ 13.2 µM) | 1 | 2 | 3 | – | – | –
3 | Colistin [reference compound] | – | – | – | – | – | – | – | – | – | – | 949.7 ± 75.35 | 2578 ± 11.41 | –
4 | Polymyxin B [PMB, reference compound] | 0.25 | 0.5 | 0.25 | 0.5 | 0.25 | >32 | 4 | 2 | 3 | 4 | 939.0 ± 63.32 | 1998 ± 27.74 | MIC ([11]; E. coli, CR (colistin-resistant), MCR-1): 8 µg/mL; susceptibility of colistin-resistant E. coli in words ([11]; in words): resistant; MIC [12]: 1 µg/mL; MIC ([13]; E. cloacae, IMP-4): 1 µg/mL; MIC ([13]; E. coli, NDM-1): 1 µg/mL; MIC ([13]; K. pneumoniae, KPC-2): 2 µg/mL; MIC ([13]; K. pneumoniae, NDM-5): 2 µg/mL; MIC ([14]; P. aeruginosa, CRPA, VIM-2): 8 µg/mL; susceptibility of CRPA in words ([14]; in words): resistant; MIC ([15]; E. coli, CTX-M-15): 1 µg/mL; MIC ([15]; S. enterica, CTX-M-55): 2 µg/mL
